Source: US20140220640A1, “METHOD FOR MANUFACTURING DETOXIFICATED LIGNOCELLULOSIC BIOMASS HYDROLYSATE WITH DECREASED OR ELIMINATED TOXICITY AND METHOD FOR MANUFACTURING ORGANIC OR AND BIOFUEL USING THE SAME” (KOREA INSTITUTE OF SCIENCE AND TECHNOLOGY, priority 2011, published 2014)

Assays:
[1] = tested on: Clostridium tyrobutyricum (ATCC 25755); experiment: Production of butyric acid by Clostridium tyrobutyricum (gas chromatography); format: cell-based; settings: 1 g/L phenolic compound plus 1 g/L Tween 80; FIG. 4
Experimental: (§1) In order to investigate the effect of phenolic compounds on the growth of microorganisms and production of butanol or butyric acid by the microorganisms, microorganisms were cultured in a medium containing phenolic compounds and the cell weight of the microorganisms and the concentration of produced butanol and butyric acid was measured.
A butyric acid fermentation medium included 20 g of glucose, 5 g of yeast extract, 0.2 g of magnesium sulfate, 0.01 g of manganese sulfate, 0.01 g of iron sulfate, 0.01 g of sodium chloride, 0.5 g of monopotassium phosphate (KH2PO4), 0.5 g of dipotassium phosphate (K2HPO4) and 2 g of ammonium acetate per liter. And, a butanol fermentation medium included 20 g of glucose, 5 g of yeast extract, 0.2 g of magnesium sulfate, 0.01 g of manganese sulfate, 0.01 g of iron sulfate, 0.01 g of sodium chloride, 0.5 g of monopotassium phosphate (KH2PO4), 0.5 g of dipotassium phosphate (K2HPO4) and 2 g of ammonium acetate per liter. […]
The concentration of butyric acid and butanol was analyzed using a gas chromatography system (Agilent Technologies 6890N Network GC system) equipped with a flame ionization detector. […]
The growth of Clostridium tyrobutyricum (ATCC 25755) and production of butyric acid thereby in the medium containing the phenolic compounds, 1 g/L each, and 1 g/L of Tween 80 were measured. […]

[2] = tested on: Clostridium tyrobutyricum (ATCC 25755); experiment: Growth of Clostridium tyrobutyricum in batch culture (absorbance at 600 nm); format: cell-based; settings: 1 g/L phenolic compound in medium, vs control with no phenolic compound; FIG. 3
Experimental: as §1
A butyric acid fermentation medium included 20 g of glucose, 5 g of yeast extract, 0.2 g of magnesium sulfate, 0.01 g of manganese sulfate, 0.01 g of iron sulfate, 0.01 g of sodium chloride, 0.5 g of monopotassium phosphate (KH2PO4), 0.5 g of dipotassium phosphate (K2HPO4) and 2 g of ammonium acetate per liter. And, a butanol fermentation medium included 20 g of glucose, 5 g of yeast extract, 0.2 g of magnesium sulfate, 0.01 g of manganese sulfate, 0.01 g of iron sulfate, 0.01 g of sodium chloride, 0.5 g of monopotassium phosphate (KH2PO4), 0.5 g of dipotassium phosphate (K2HPO4) and 2 g of ammonium acetate per liter. Each medium was flushed with argon gas and sterilized at 121° C. for 15 minutes before measurement. Initial pH was adjusted to 6.8 with 1 N potassium hydroxide (KOH).
p-Coumaric acid, ferulic acid, syringaldehyde and vanillic acid, 1 g/L each, were added to the medium as phenolic compounds. A medium with no phenolic compound added was used as control.
Butyric acid fermentation was conducted using Clostridium tyrobutyricum (American Type Culture Collection, ATCC 25755) after culturing for two passages. Butanol fermentation was conducted using Clostridium acetobutylicum (ATCC 824) and Clostridium beijerinckii (National Collection of Industrial, Marine and Food Bacteria, NCIMB 8052) after culturing for two passages.
Butyric acid and butanol fermentation was carried out by adding the culture fluid to a batch fermenter. Batch culture was performed by adding 20 mL of the medium to a 60-mL serum bottle, adding the culture fluid with an amount of 5% based on the medium and then incubating in a shaking incubator at 37° C. and 150 rpm.
The growth of the microorganisms was evaluated by measuring absorbance at 600 nm using a spectrophotometer (UVmini-1240, Shimadzu).
As the surfactant, Tween 80 (BioXtra, Sigma, viscous liquid) was used. The phenolic compound and Tween 80 were added at an amount of 1 g/L to the medium of Example 1. A medium with no phenolic compound or Tween 80 added was used as control.
The growth of Clostridium tyrobutyricum (ATCC 25755) and production of butyric acid thereby in the medium containing the phenolic compounds, 1 g/L each, and 1 g/L of Tween 80 were measured.
Other experimental conditions were the same as in Example 1.
1 g/L of lignin (alkali, Sigma Aldrich 471003) was added to the medium of Example 1 instead of the phenolic compounds. […]

COc1cc(/C=C/C(=O)O)ccc1O [ferulic acid]
detoxifying effect of added surfactant on butyric acid production [1]: higher detoxifying effect
inhibiting the growth of the microorganism [2]: 74%

O=C(O)/C=C/c1ccc(O)cc1 [p-coumaric acid, p-Coumaric acid]
detoxifying effect of added surfactant on butyric acid production [1]: higher detoxifying effect
inhibiting the growth of the microorganism [2]: 99%

COc1cc(C=O)cc(OC)c1O [syringaldehyde]
inhibiting the growth of the microorganism [2]: 30%

COc1cc(C(=O)O)ccc1O [vanillic acid]
inhibiting the growth of the microorganism [2]: 48%
